Data as given in article PMC12796071, “Evaluation of [^18F]MNI-1054, a novel PET ligand for lysine-specific histone demethylase 1A (LSD1), in non-human primates” (EJNMMI Research, 2025).
“And” between values parts separate entries of the source, which are not always exact repeats. Equal entries are not always repeated. “Also recorded” adds a separate entry of the source.

Test: Whole-body PET biodistribution and radiation dosimetry (OLINDA 2.0)
Format: in vivo
Conditions: for Dose, Urinary bladder wall: no-bladder-void model; for whole-body effective dose, ED (ICRP-103): scaled from NHP to human
Method: Dynamic whole-body PET was conducted in one male (M3, 15.4 kg) and one female (M4, 6.8 kg) rhesus to study the biodistribution and radiation dosimetry of [^18F]MNI-1054. Whole-body images were acquired over ~4 h (17–19 passes, 4 bed positions) using a Biograph mCT PET/CT scanner (Siemens). The images in the series were subsequently reconstructed in 400 × 400 × 300 pixel arrays with pixel size: 2 × 2 × 2 mm^3 using the iterative True-X algorithm (4 iterations, 21 subsets) provided by the camera manufacturer, incorporating point spread function modeling and corrections for random, scatter, normalization, dead-time and attenuation. Prior to PET, each animal received a whole-body CT for correcting attenuation and scatter as well as to assist in anatomical localization of organs of interest.
Reconstructed whole-body PET volumes were transferred to PMOD software (PMOD Technologies, Zurich, Switzerland) for analysis. Decay correction was first removed to facilitate the calculation of radioactive disintegrations from dynamic data. Images were reviewed for assessment of body organ radioactivity distribution. VOIs were manually drawn to capture the following organs: brain, heart wall, lungs, gallbladder, liver, kidneys, spleen, testes (male), urinary bladder, back vertebrae, and intestines, and defined dynamically to account for any animal movement or shift in organ position or shape between acquisitions. Total activity (kBq) within each VOI was determined and organ TACs were generated and expressed as percent of the injected activity.
The number of disintegrations per unit activity administered in each source organ (i.e., the “residence times” or “time-integrated activity coefficients”), τ, were computed from the areas under the non-decay corrected TACs via the trapezoidal method. The area under the curve from the end of imaging to infinity was calculated with the assumption of physical decay only following the last imaging time point. Residence times were converted to adult human values using conversion factors based on differences in organ and body weights between both species. The ICRP 100 HAT gastrointestinal (GI) tract model was applied to estimate residence times in the left, right, and sigmoid (i.e., rectum) colon and small intestine, with the assumption that activity entered the GI tract via the small intestine with no reabsorption. The intestinal decay-corrected time-activity curve was used for estimating the fraction of the radioactivity entering the intestine during imaging. Red marrow residence times were calculated based on assumption that vertebrae contain ~40% of total red marrow.
OLINDA 2.0 software (Hermes Medical Solutions) was used to estimate the organ and whole-body radiation absorbed doses. OLINDA 2.0 performs internal dose calculations based on MIRD and Radiation Dose Assessment Resource (RADAR) methodology. ICRP-89 adult male (73 kg) and female (60 kg) models were used to calculate the s-factors. All other MIRD assumptions about the homogeneity of source organ distribution were employed. The effective doses were computed with biological tissue weighting factors defined in the ICRP Publication 103 [26].

**Q.** For `Cc1cc([18F])ncc1C(=O)Nc1ccc([C@@H]2C[C@H]2NCC2CC2)cc1` [[^18F]MNI-1054], which “Dose, Adrenals” value (ICRP-89 adult female model) is on record?
**A.** 2.24E-02 mSv/MBq

**Q.** And the “Dose, Brain” value (ICRP-89 adult female model)?
**A.** 1.22E-02 mSv/MBq

**Q.** And the “Dose, Breasts” value (ICRP-89 adult female model)?
**A.** 1.06E-02 mSv/MBq

**Q.** What about the “Dose, Esophagus” value (ICRP-89 adult female model) of the same compound?
**A.** 1.75E-02 mSv/MBq

**Q.** And the “Dose, Eyes” value (ICRP-89 adult female model)?
**A.** 9.29E-03 mSv/MBq

**Q.** And the “Dose, Gallbladder wall” value (ICRP-89 adult female model)?
**A.** 2.88E-01 mSv/MBq

**Q.** And the “Dose, Heart wall” value (ICRP-89 adult female model)?
**A.** 4.98E-02 mSv/MBq

**Q.** And the “Dose, Kidneys” value (ICRP-89 adult female model)?
**A.** 5.28E-02 mSv/MBq

**Q.** And the “Dose, Left colon” value (ICRP-89 adult female model)?
**A.** 3.02E-02 mSv/MBq

**Q.** And the “Dose, Liver” value (ICRP-89 adult female model)?
**A.** 2.29E-02 mSv/MBq

**Q.** What about the “Dose, Lungs” value (ICRP-89 adult female model) of the same compound?
**A.** 6.16E-02 mSv/MBq

**Q.** What about the “Dose, Osteogenic cells” value (ICRP-89 adult female model) of the same compound?
**A.** 1.36E-02 mSv/MBq

**Q.** And the “Dose, Ovaries” value (ICRP-89 adult female model)?
**A.** 1.66E-02 mSv/MBq

**Q.** And the “Dose, Pancreas” value (ICRP-89 adult female model)?
**A.** 2.12E-02 mSv/MBq

**Q.** And the “Dose, Rectum” value (ICRP-89 adult female model)?
**A.** 1.88E-02 mSv/MBq

**Q.** What about the “Dose, Red marrow” value (ICRP-89 adult female model) of the same compound?
**A.** 2.01E-02 mSv/MBq

**Q.** What about the “Dose, Right colon” value (ICRP-89 adult female model) of the same compound?
**A.** 6.29E-02 mSv/MBq

**Q.** What about the “Dose, Salivary glands” value (ICRP-89 adult female model) of the same compound?
**A.** 1.01E-02 mSv/MBq

**Q.** And the “Dose, Small intestine” value (ICRP-89 adult female model)?
**A.** 6.01E-02 mSv/MBq

**Q.** What about the “Dose, Spleen” value (ICRP-89 adult female model) of the same compound?
**A.** 2.77E-02 mSv/MBq

**Q.** What about the “Dose, Stomach wall” value (ICRP-89 adult female model) of the same compound?
**A.** 1.69E-02 mSv/MBq

**Q.** And the “Dose, Thymus” value (ICRP-89 adult female model)?
**A.** 1.88E-02 mSv/MBq

**Q.** What about the “Dose, Thyroid” value (ICRP-89 adult female model) of the same compound?
**A.** 1.32E-02 mSv/MBq

**Q.** And the “Dose, Total body” value (ICRP-89 adult female model)?
**A.** 1.53E-02 mSv/MBq

**Q.** And the “Dose, Uterus” value (ICRP-89 adult female model)?
**A.** 1.92E-02 mSv/MBq

**Q.** And the “Dose, Urinary bladder wall” value (ICRP-89 adult female model)?
**A.** 5.92E-02 mSv/MBq

**Q.** What about the “whole-body effective dose, ED (ICRP-103)” value (ICRP-89 adult female model) of the same compound?
**A.** 0.0272 mSv/MBq and 2.72E-02 mSv/MBq

**Q.** And the “Dose, Adrenals” value (ICRP-89 adult male model)?
**A.** 1.87E-02 mSv/MBq

**Q.** And the “Dose, Brain” value (ICRP-89 adult male model)?
**A.** 9.69E-03 mSv/MBq

**Q.** And the “Dose, Esophagus” value (ICRP-89 adult male model)?
**A.** 1.49E-02 mSv/MBq

**Q.** What about the “Dose, Eyes” value (ICRP-89 adult male model) of the same compound?
**A.** 7.78E-03 mSv/MBq

**Q.** And the “Dose, Gallbladder wall” value (ICRP-89 adult male model)?
**A.** 6.57E-02 mSv/MBq

**Q.** What about the “Dose, Heart wall” value (ICRP-89 adult male model) of the same compound?
**A.** 4.90E-02 mSv/MBq

**Q.** And the “Dose, Kidneys” value (ICRP-89 adult male model)?
**A.** 4.63E-02 mSv/MBq

**Q.** What about the “Dose, Left colon” value (ICRP-89 adult male model) of the same compound?
**A.** 1.62E-02 mSv/MBq

**Q.** What about the “Dose, Liver” value (ICRP-89 adult male model) of the same compound?
**A.** 3.02E-02 mSv/MBq

**Q.** And the “Dose, Lungs” value (ICRP-89 adult male model)?
**A.** 4.01E-02 mSv/MBq

**Q.** And the “Dose, Osteogenic cells” value (ICRP-89 adult male model)?
**A.** 1.21E-02 mSv/MBq

**Q.** And the “Dose, Pancreas” value (ICRP-89 adult male model)?
**A.** 1.48E-02 mSv/MBq

**Q.** And the “Dose, Prostate” value (ICRP-89 adult male model)?
**A.** 1.78E-02 mSv/MBq

**Q.** What about the “Dose, Rectum” value (ICRP-89 adult male model) of the same compound?
**A.** 1.60E-02 mSv/MBq

**Q.** And the “Dose, Red marrow” value (ICRP-89 adult male model)?
**A.** 1.65E-02 mSv/MBq

**Q.** And the “Dose, Right colon” value (ICRP-89 adult male model)?
**A.** 2.37E-02 mSv/MBq

**Q.** And the “Dose, Salivary glands” value (ICRP-89 adult male model)?
**A.** 9.10E-03 mSv/MBq

**Q.** What about the “Dose, Small intestine” value (ICRP-89 adult male model) of the same compound?
**A.** 2.08E-02 mSv/MBq

**Q.** What about the “Dose, Spleen” value (ICRP-89 adult male model) of the same compound?
**A.** 1.84E-02 mSv/MBq

**Q.** What about the “Dose, Stomach wall” value (ICRP-89 adult male model) of the same compound?
**A.** 1.42E-02 mSv/MBq

**Q.** And the “Dose, Testes” value (ICRP-89 adult male model)?
**A.** 3.17E-02 mSv/MBq

**Q.** And the “Dose, Thymus” value (ICRP-89 adult male model)?
**A.** 1.44E-02 mSv/MBq

**Q.** What about the “Dose, Thyroid” value (ICRP-89 adult male model) of the same compound?
**A.** 1.14E-02 mSv/MBq

**Q.** What about the “Dose, Total body” value (ICRP-89 adult male model) of the same compound?
**A.** 1.16E-02 mSv/MBq

**Q.** And the “Dose, Urinary bladder wall” value (ICRP-89 adult male model)?
**A.** 1.24E-01 mSv/MBq

**Q.** What about the “whole-body effective dose, ED (ICRP-103)” value (ICRP-89 adult male model) of the same compound?
**A.** 0.0267 mSv/MBq and 2.67E-02 mSv/MBq

**Q.** What about the “Dose, Adrenals” value (Mean) of the same compound?
**A.** 2.06E-02 mSv/MBq

**Q.** And the “Dose, Brain” value (Mean)?
**A.** 1.09E-02 mSv/MBq

**Q.** And the “Dose, Breasts” value (Mean)?
**A.** 1.06E-02 mSv/MBq

**Q.** What about the “Dose, Esophagus” value (Mean) of the same compound?
**A.** 1.62E-02 mSv/MBq

**Q.** And the “Dose, Eyes” value (Mean)?
**A.** 8.54E-03 mSv/MBq

**Q.** What about the “Dose, Gallbladder wall” value (Mean) of the same compound?
**A.** 0.18 mSv/MBq and 0.177 mSv/MBq and 1.77E-01 mSv/MBq

**Q.** And the “Dose, Heart wall” value (Mean)?
**A.** 4.94E-02 mSv/MBq

**Q.** And the “Dose, Kidneys” value (Mean)?
**A.** 4.96E-02 mSv/MBq

**Q.** What about the “Dose, Left colon” value (Mean) of the same compound?
**A.** 2.32E-02 mSv/MBq

**Q.** And the “Dose, Liver” value (Mean)?
**A.** 2.66E-02 mSv/MBq

**Q.** What about the “Dose, Lungs” value (Mean) of the same compound?
**A.** 5.09E-02 mSv/MBq

**Q.** What about the “Dose, Osteogenic cells” value (Mean) of the same compound?
**A.** 1.29E-02 mSv/MBq

**Q.** And the “Dose, Ovaries” value (Mean)?
**A.** 1.66E-02 mSv/MBq

**Q.** And the “Dose, Pancreas” value (Mean)?
**A.** 1.80E-02 mSv/MBq

**Q.** And the “Dose, Prostate” value (Mean)?
**A.** 1.78E-02 mSv/MBq

**Q.** And the “Dose, Rectum” value (Mean)?
**A.** 1.74E-02 mSv/MBq

**Q.** And the “Dose, Red marrow” value (Mean)?
**A.** 1.83E-02 mSv/MBq

**Q.** And the “Dose, Right colon” value (Mean)?
**A.** 4.33E-02 mSv/MBq

**Q.** What about the “Dose, Salivary glands” value (Mean) of the same compound?
**A.** 9.60E-03 mSv/MBq

**Q.** And the “Dose, Small intestine” value (Mean)?
**A.** 4.05E-02 mSv/MBq

**Q.** And the “Dose, Spleen” value (Mean)?
**A.** 2.31E-02 mSv/MBq

**Q.** What about the “Dose, Stomach wall” value (Mean) of the same compound?
**A.** 1.56E-02 mSv/MBq

**Q.** And the “Dose, Testes” value (Mean)?
**A.** 3.17E-02 mSv/MBq

**Q.** And the “Dose, Thymus” value (Mean)?
**A.** 1.66E-02 mSv/MBq

**Q.** What about the “Dose, Thyroid” value (Mean) of the same compound?
**A.** 1.23E-02 mSv/MBq

**Q.** And the “Dose, Total body” value (Mean)?
**A.** 1.35E-02 mSv/MBq

**Q.** What about the “Dose, Uterus” value (Mean) of the same compound?
**A.** 1.92E-02 mSv/MBq

**Q.** What about the “Dose, Urinary bladder wall” value (Mean) of the same compound?
**A.** 0.0916 mSv/MBq and 9.16E-02 mSv/MBq

**Q.** What about the “whole-body effective dose, ED (ICRP-103)” value (Mean) of the same compound?
**A.** 2.70E-02 mSv/MBq

**Q.** What about the “whole-body effective dose per 185 MBq injected” value (female value) of the same compound?
**A.** 5.03 mSv

**Q.** What about the “maximal dose allowed for a single study per 21 CFR § 361.1” value (gallbladder wall as the dose-limiting organ) of the same compound?
**A.** 282.5 MBq

**Q.** And the elimination pathways (whole-body imaging)?
**A.** eliminated via both hepatobiliary and urinary pathways; also recorded: urinary (primary) and hepatobiliary pathways
